{"source": "paper PMC4890880", "about": "(ACS infectious diseases, 2016)", "key": {"HepG2-A16-CD81EGFP cells": {"tested_on": "HepG2-A16-CD81EGFP cells", "conditions": "for IC50: read-out: Tox_IC50, HepG2 cytotoxicity"}, "[1]": {"tested_on": "Plasmodium berghei (Pb-Luc) exoerythrocytic-stage parasites", "conditions": "for IC50: read-out: PbLuc_IC50; for normalised signal at concentration 10 (first series): concentration 10, first series of dose columns; for normalised signal at concentration 10 (second series): concentration 10, second series of dose columns"}, "[2]": {"conditions": "2nd round, maximal inhibition in dose series"}, "[3]": {"conditions": "sheet \"2nd round\", Broad compounds, dose response top concentration 10"}}, "note": "Where two headings read alike, the source gives them in different places.", "data": [{"smiles": "C[C@H]1CN([C@@H](C)CO)C(=O)c2cccc(NC(=O)c3ccc(-c4nccs4)cc3)c2O[C@@H]1CN(C)C(=O)Nc1ccc(C(F)(F)F)cc1", "note": "[BRD-K03390828-001-01-5]", "values": [{"measurement": "Tox_max_inhibition (%)", "setting": "HepG2-A16-CD81EGFP cells; [2]", "value": 6.57, "unit": "%"}, {"measurement": "IC50", "setting": "HepG2-A16-CD81EGFP cells; 2nd round, unit inferred", "value": "> 10", "unit": "µM"}, {"measurement": "PbLuc_max_inhibition (%)", "setting": "[1]; [2]", "value": 34, "unit": "%"}, {"measurement": "normalized signal at 0.000508053 (first series)", "setting": "[1]; concentration 0.000508053, first replicate series, fraction of control", "value": 0.9377}, {"measurement": "normalized signal at 0.000508053 (second series)", "setting": "[1]; concentration 0.000508053, second replicate series, fraction of control", "value": 0.6684}, {"measurement": "normalized signal at 0.00152416 (first series)", "setting": "[1]; concentration 0.00152416, first replicate series, fraction of control", "value": 0.8855}, {"measurement": "normalized signal at 0.00152416 (second series)", "setting": "[1]; concentration 0.00152416, second replicate series, fraction of control", "value": 0.8915}, {"measurement": "normalized signal at 0.00457247 (first series)", "setting": "[1]; concentration 0.00457247, first replicate series, fraction of control", "value": 0.8808}, {"measurement": "normalized signal at 0.00457247 (second series)", "setting": "[1]; concentration 0.00457247, second replicate series, fraction of control", "value": 0.7577}, {"measurement": "normalized signal at 0.0137174 (first series)", "setting": "[1]; concentration 0.0137174, first replicate series, fraction of control", "value": 0.9989}, {"measurement": "normalized signal at 0.0137174 (second series)", "setting": "[1]; concentration 0.0137174, second replicate series, fraction of control", "value": 0.749}, {"measurement": "normalized signal at 0.0411523 (first series)", "setting": "[1]; concentration 0.0411523, first replicate series, fraction of control", "value": 0.8536}, {"measurement": "normalized signal at 0.0411523 (second series)", "setting": "[1]; concentration 0.0411523, second replicate series, fraction of control", "value": 0.9352}, {"measurement": "normalized signal at 0.123457 (first series)", "setting": "[1]; concentration 0.123457, first replicate series, fraction of control", "value": 0.9414}, {"measurement": "normalized signal at 0.123457 (second series)", "setting": "[1]; concentration 0.123457, second replicate series, fraction of control", "value": 0.925}, {"measurement": "normalized signal at 0.37037 (first series)", "setting": "[1]; concentration 0.37037, first replicate series, fraction of control", "value": 0.9548}, {"measurement": "normalized signal at 0.37037 (second series)", "setting": "[1]; concentration 0.37037, second replicate series, fraction of control", "value": 0.6557}, {"measurement": "normalized signal at 1.11111 (first series)", "setting": "[1]; concentration 1.11111, first replicate series, fraction of control", "value": 1.032}, {"measurement": "normalized signal at 1.11111 (second series)", "setting": "[1]; concentration 1.11111, second replicate series, fraction of control", "value": 0.7805}, {"measurement": "normalized signal at 3.33333 (first series)", "setting": "[1]; concentration 3.33333, first replicate series, fraction of control", "value": 1.162}, {"measurement": "normalized signal at 3.33333 (second series)", "setting": "[1]; concentration 3.33333, second replicate series, fraction of control", "value": 0.8715}, {"measurement": "normalized signal at 10 (first series)", "setting": "[1]; concentration 10, first replicate series, fraction of control", "value": 0.7935}, {"measurement": "normalized signal at 10 (second series)", "setting": "[1]; concentration 10, second replicate series, fraction of control", "value": 0.8747}, {"measurement": "IC50", "setting": "[1]; 2nd round, Broad DOS compounds, unit not printed (dose series head 10 to 0.000508053)", "value": "> 10", "unit": "µM"}]}, {"smiles": "C[C@@H]1CCCCO[C@H](CN(C)S(=O)(=O)c2ccc(F)cc2)[C@H](C)CN([C@@H](C)CO)C(=O)c2cc(N(C)C)ccc2O1", "note": "[BRD-K77718491-001-01-4]", "values": [{"measurement": "IC50", "setting": "HepG2-A16-CD81EGFP cells; sheet \"2nd round\"", "value": "> 10", "unit": "µM"}, {"measurement": "Tox_max_inhibition (%)", "setting": "HepG2-A16-CD81EGFP cells; sheet \"2nd round\"", "value": 7, "unit": "%"}, {"measurement": "normalised signal at concentration 0.000508053 (first series)", "setting": "[1]", "value": 0.8436}, {"measurement": "normalised signal at concentration 0.000508053 (second series)", "setting": "[1]", "value": 0.9419}, {"measurement": "normalised signal at concentration 0.00152416 (first series)", "setting": "[1]", "value": 1.131}, {"measurement": "normalised signal at concentration 0.00152416 (second series)", "setting": "[1]", "value": 0.8322}, {"measurement": "normalised signal at concentration 0.00457247 (first series)", "setting": "[1]", "value": 0.8284}, {"measurement": "normalised signal at concentration 0.00457247 (second series)", "setting": "[1]", "value": 0.9071}, {"measurement": "normalised signal at concentration 0.0137174 (first series)", "setting": "[1]", "value": 1.006}, {"measurement": "normalised signal at concentration 0.0137174 (second series)", "setting": "[1]", "value": 0.921}, {"measurement": "normalised signal at concentration 0.0411523 (first series)", "setting": "[1]", "value": 0.8082}, {"measurement": "normalised signal at concentration 0.0411523 (second series)", "setting": "[1]", "value": 0.9497}, {"measurement": "normalised signal at concentration 0.123457 (first series)", "setting": "[1]", "value": 0.9873}, {"measurement": "normalised signal at concentration 0.123457 (second series)", "setting": "[1]", "value": 0.8645}, {"measurement": "normalised signal at concentration 0.37037 (first series)", "setting": "[1]", "value": 0.8615}, {"measurement": "normalised signal at concentration 0.37037 (second series)", "setting": "[1]", "value": 0.9228}, {"measurement": "normalised signal at concentration 1.11111 (first series)", "setting": "[1]", "value": 0.9968}, {"measurement": "normalised signal at concentration 1.11111 (second series)", "setting": "[1]", "value": 0.8769}, {"measurement": "normalised signal at concentration 3.33333 (first series)", "setting": "[1]", "value": 0.7967}, {"measurement": "normalised signal at concentration 3.33333 (second series)", "setting": "[1]", "value": 1.06}, {"measurement": "normalised signal at concentration 10 (first series)", "setting": "[1]", "value": 0.9825}, {"measurement": "normalised signal at concentration 10 (second series)", "setting": "[1]", "value": 0.8275}, {"measurement": "IC50", "setting": "[1]; [3]", "value": "> 10", "unit": "µM"}, {"measurement": "PbLuc_max_inhibition (%)", "setting": "[1]; sheet \"2nd round\"", "value": 20, "unit": "%"}]}, {"smiles": "COc1ccccc1S(=O)(=O)N(C)C[C@@H]1OCc2ccccc2-c2ccccc2C(=O)N([C@H](C)CO)C[C@@H]1C", "note": "[BRD-K88384060-001-01-3]", "values": [{"measurement": "IC50", "setting": "HepG2-A16-CD81EGFP cells; sheet \"2nd round\"", "value": "> 10", "unit": "µM"}, {"measurement": "Tox_max_inhibition (%)", "setting": "HepG2-A16-CD81EGFP cells; sheet \"2nd round\"", "value": 2.77, "unit": "%"}, {"measurement": "normalised signal at concentration 0.000508053 (first series)", "setting": "[1]", "value": 0.762}, {"measurement": "normalised signal at concentration 0.000508053 (second series)", "setting": "[1]", "value": 0.8443}, {"measurement": "normalised signal at concentration 0.00152416 (first series)", "setting": "[1]", "value": 0.9256}, {"measurement": "normalised signal at concentration 0.00152416 (second series)", "setting": "[1]", "value": 0.8309}, {"measurement": "normalised signal at concentration 0.00457247 (first series)", "setting": "[1]", "value": 0.8786}, {"measurement": "normalised signal at concentration 0.00457247 (second series)", "setting": "[1]", "value": 0.8245}, {"measurement": "normalised signal at concentration 0.0137174 (first series)", "setting": "[1]", "value": 0.8282}, {"measurement": "normalised signal at concentration 0.0137174 (second series)", "setting": "[1]", "value": 0.879}, {"measurement": "normalised signal at concentration 0.0411523 (first series)", "setting": "[1]", "value": 0.9277}, {"measurement": "normalised signal at concentration 0.0411523 (second series)", "setting": "[1]", "value": 0.9618}, {"measurement": "normalised signal at concentration 0.123457 (first series)", "setting": "[1]", "value": 0.8826}, {"measurement": "normalised signal at concentration 0.123457 (second series)", "setting": "[1]", "value": 1.0267}, {"measurement": "normalised signal at concentration 0.37037 (first series)", "setting": "[1]", "value": 0.7577}, {"measurement": "normalised signal at concentration 0.37037 (second series)", "setting": "[1]", "value": 1.11}, {"measurement": "normalised signal at concentration 1.11111 (first series)", "setting": "[1]", "value": 0.8863}, {"measurement": "normalised signal at concentration 1.11111 (second series)", "setting": "[1]", "value": 0.7661}, {"measurement": "normalised signal at concentration 3.33333 (first series)", "setting": "[1]", "value": 0.8204}, {"measurement": "normalised signal at concentration 3.33333 (second series)", "setting": "[1]", "value": 0.8055}, {"measurement": "normalised signal at concentration 10 (first series)", "setting": "[1]", "value": 0.8642}, {"measurement": "normalised signal at concentration 10 (second series)", "setting": "[1]", "value": 0.7248}, {"measurement": "IC50", "setting": "[1]; [3]", "value": "> 10", "unit": "µM"}, {"measurement": "PbLuc_max_inhibition (%)", "setting": "[1]; sheet \"2nd round\"", "value": 28, "unit": "%"}]}]}
